Reference: patent US9040519B2, “Fused tetracyclic pyrido [4,3-B] indole and pyrido [3,4-B] indole derivatives and methods of use” (Medivation Technologies, Inc., priority 2010, dated 2015)

Target: T1, human recombinant serotonin (5-Hydroxytryptamine) 5-HT7 receptor (Homo sapiens, UniProt P34969)
T1 construct: expressed in transfected cells; host or cells: CHO
Test: Serotonin 5-HT7 radioligand binding ([3H]LSD)
Conditions: compound at 0.1 μM; CHO cells; read-out: Percentage inhibition of ligand binding, Serotonin 5-HT7
Method: To evaluate in radioligand binding assays the activity of compounds of the invention, human recombinant serotonin (5-Hydroxytryptamine) 5-HT7 receptor expressed in Chinese hamster ovary (CHO) cells (Roth, B. et al, J. Pharmacol. Exp. Ther. 268:1403, 1994; Shen, Y. et al, J. Biol. Chem. 268:18200, 1993) in a modified Tris-HCl buffer (50 mM Tris-HCl, pH 7.4, 10 mM MgCl2, 0.5 mM EDTA) was used. Compounds of invention were incubated with 5.5 nM [^3H] Lysergic acid diethylamide (LSD) for 2 h at 25° C. Non-specific binding was estimated in the presence of 10 μM Serotonin (5-HT). Receptor proteins were filtered and washed, the filters were then counted to determine [^3H]LSD specifically bound. Compounds were screened at 1 μM or lower, using 1% DMSO as vehicle. Biochemical assay results are presented as the percent inhibition of specific binding in Table 4.

T1 sequence (P34969 whole entry): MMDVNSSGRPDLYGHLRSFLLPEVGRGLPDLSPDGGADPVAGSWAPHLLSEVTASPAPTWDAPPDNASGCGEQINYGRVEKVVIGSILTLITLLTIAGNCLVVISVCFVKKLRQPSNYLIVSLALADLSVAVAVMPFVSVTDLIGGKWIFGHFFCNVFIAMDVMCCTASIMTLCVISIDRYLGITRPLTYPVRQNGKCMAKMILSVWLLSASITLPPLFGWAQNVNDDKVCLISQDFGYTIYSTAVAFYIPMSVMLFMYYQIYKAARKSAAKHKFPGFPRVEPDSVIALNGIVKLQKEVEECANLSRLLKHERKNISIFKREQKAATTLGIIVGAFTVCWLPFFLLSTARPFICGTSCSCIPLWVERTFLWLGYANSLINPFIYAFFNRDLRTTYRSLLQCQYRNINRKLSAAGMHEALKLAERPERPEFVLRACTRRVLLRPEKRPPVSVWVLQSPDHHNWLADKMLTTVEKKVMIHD

How did the inhibition at 0.1 µM turn out when `Cc1ccc2c(c1)c1c3n2CC(c2ccncc2)=CCC3(C)CN(C)C1` (stereo not drawn) [Compound 11, 2,3a,10-trimethyl-6-pyridin-4-yl-1,2,3,3a,4,7-hexahydro-2,7a-diaza-cyclohepta[jk]fluorene] was run?
The inhibition at 0.1 µM was -8%.

Which inhibition at 0.1 µM does the source give for `Cc1ccc2c(c1)c1c3n2C(c2ccccc2)=CCC3(C)CN(C)C1` (stereo not drawn) [Compound 10, 2,3a,10-trimethyl-6-phenyl-2,3,3a,4-tetrahydro-1H-indolo[3,2,1-ij][1,6]naphthyridine] here?
Its inhibition at 0.1 µM is 12%.

Which inhibition at 0.1 µM does the source give for `Cc1ccc2c(c1)c1c3n2C(c2ccccc2)CCC3(C)CN(C)C1` (stereo not drawn) [Compound 12, 2,3a,10-trimethyl-6-phenyl-2,3,3a,4,5,6-hexahydro-1H-indolo[3,2,1-ij][1,6]naphthyridine] here?
Its inhibition at 0.1 µM is -17%.
